Like-named read-outs stand apart in the source and are kept apart here.
Tests used:
KPL4 (PIK3CA mut) = assay: Tumor cell proliferation, CCK8 method, KPL4; assay type: cell-based; conditions: CCK8, KPL4; read-out: KPL4 (PIK3CA mut) proliferation IC50
Protocol: (§1) The IC50 value was calculated using Graphpad Prism V5.0 software.

PI3Kα = target: T1, PI3Kα (Homo sapiens, UniProt P42336); assay: PI3Kα molecular activity test (ADP-GLO); assay type: biochemical; conditions: for Selectivity (PI3Kδ IC50/PI3KαIC50): PI3Kδ IC50/PI3Kα IC50; for IC50: recombinant protein, 100 μM ATP, 2 hours at room temperature
T1 construct: purchased Carna Bioscience
Protocol: (§2) Instrument: ELISA Reader Envision™ (PerkinElmer, USA)
(§3) Materials: Human recombinant PI3K and PI3Kδ proteins, purchased from Carna Bioscience; ADP-GLO kit, purchased from Promega.
(§4) Take the PI3Kα Molecular Activity Test as an Example to Describe the Text Method of the PI3K Subtypes
(§5) PI3K-α recombinant protein and substrate ATP were diluted with kinase reaction buffer (50 mM Tris-HCl, pH 7.4, 2.1 mM DTT, 0.05% Tween-20, 10 mM MgCl2). […] The specific reaction system was 2% of DMSO, 0.8 ng/μL PI3K-α, and 100 μM ATP, the positive compound control groups and control wells were set, and there were 3 multiple-wells for each concentration of each sample. After incubating for 2 hours at room temperature, ADP-GLO Reagent and Kinase Detection Reagent were added respectively, and then Envision™ was used to detect the […] readings. The activity rate of the samples were calculated by the sample readings, and the calculation formula was: activity rate=(ODcompound−ODcontrol)/(ODDMSO−ODcontro) ×100%.

PI3Kδ = target: T2, PI3Kδ (Homo sapiens, UniProt O00329); assay: PI3Kδ molecular activity test (ADP-GLO); assay type: biochemical; conditions: recombinant protein
T2 construct: purchased Carna Bioscience
Protocol: as §2, §3, §4, §5

MCF7 (PIK3CA mut) = assay: Tumor cell proliferation, CCK8 method, MCF7; assay type: cell-based, human; conditions: CCK8, MCF7, read-out: MCF7 (PIK3CA mut) proliferation IC50
Protocol: as §1

SW48 (PIK3CA mut) = assay: Tumor cell proliferation, CCK8 method, SW48; assay type: cell-based; conditions: CCK8, SW48, read-out: SW48 (PIK3CA mut) proliferation IC50
Protocol: as §1

ZR-75-1 (PTEN loss) = assay: Tumor cell proliferation, CCK8 method, ZR-75-1; assay type: cell-based; conditions: CCK8, ZR-75-1
Protocol: as §1

T2 sequence (O00329 whole entry): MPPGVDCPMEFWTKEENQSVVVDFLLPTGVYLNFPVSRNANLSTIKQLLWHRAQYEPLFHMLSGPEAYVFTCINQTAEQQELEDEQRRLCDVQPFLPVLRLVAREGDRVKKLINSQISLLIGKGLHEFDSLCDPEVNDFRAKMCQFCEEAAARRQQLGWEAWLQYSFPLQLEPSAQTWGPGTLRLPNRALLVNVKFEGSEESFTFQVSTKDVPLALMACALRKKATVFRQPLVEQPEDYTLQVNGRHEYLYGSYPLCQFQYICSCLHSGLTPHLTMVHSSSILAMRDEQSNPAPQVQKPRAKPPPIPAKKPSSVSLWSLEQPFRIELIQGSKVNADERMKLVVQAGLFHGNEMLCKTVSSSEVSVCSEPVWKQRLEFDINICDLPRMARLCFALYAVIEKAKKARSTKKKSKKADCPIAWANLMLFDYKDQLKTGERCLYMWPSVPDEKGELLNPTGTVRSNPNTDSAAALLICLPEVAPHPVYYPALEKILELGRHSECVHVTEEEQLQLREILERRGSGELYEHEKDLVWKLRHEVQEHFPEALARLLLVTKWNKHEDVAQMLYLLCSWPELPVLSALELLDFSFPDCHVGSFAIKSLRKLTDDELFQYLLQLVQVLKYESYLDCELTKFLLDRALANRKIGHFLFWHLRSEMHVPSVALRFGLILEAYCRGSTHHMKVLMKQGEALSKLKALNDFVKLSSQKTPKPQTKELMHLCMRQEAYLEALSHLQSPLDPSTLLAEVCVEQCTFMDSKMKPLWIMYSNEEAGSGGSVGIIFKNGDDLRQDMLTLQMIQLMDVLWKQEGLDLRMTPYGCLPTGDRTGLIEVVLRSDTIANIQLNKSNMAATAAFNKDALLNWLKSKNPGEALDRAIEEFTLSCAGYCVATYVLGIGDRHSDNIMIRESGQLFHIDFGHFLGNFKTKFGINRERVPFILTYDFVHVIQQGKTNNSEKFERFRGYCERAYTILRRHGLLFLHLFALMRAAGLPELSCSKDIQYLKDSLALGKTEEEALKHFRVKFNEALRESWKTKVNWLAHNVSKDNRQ
T2 sequence (P27986 whole entry partner): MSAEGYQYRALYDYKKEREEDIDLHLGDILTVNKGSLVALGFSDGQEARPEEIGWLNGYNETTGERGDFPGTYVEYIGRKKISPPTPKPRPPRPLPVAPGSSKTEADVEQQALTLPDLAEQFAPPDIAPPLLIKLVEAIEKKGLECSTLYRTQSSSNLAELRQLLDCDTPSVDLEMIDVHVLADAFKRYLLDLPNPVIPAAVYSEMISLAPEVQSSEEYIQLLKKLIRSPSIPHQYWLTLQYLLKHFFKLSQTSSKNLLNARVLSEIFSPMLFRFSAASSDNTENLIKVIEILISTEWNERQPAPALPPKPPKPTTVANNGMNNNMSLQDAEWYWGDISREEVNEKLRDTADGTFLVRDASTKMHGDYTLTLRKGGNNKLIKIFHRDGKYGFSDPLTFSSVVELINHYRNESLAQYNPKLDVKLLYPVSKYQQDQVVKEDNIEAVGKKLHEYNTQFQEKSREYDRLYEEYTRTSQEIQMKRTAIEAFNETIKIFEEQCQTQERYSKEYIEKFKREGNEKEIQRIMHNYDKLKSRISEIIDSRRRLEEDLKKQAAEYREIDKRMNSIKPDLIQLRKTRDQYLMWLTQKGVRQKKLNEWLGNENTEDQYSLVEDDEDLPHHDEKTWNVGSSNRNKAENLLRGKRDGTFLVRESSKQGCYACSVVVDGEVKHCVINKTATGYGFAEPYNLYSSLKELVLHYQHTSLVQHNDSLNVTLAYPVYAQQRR
T1 sequence (P42336 whole entry): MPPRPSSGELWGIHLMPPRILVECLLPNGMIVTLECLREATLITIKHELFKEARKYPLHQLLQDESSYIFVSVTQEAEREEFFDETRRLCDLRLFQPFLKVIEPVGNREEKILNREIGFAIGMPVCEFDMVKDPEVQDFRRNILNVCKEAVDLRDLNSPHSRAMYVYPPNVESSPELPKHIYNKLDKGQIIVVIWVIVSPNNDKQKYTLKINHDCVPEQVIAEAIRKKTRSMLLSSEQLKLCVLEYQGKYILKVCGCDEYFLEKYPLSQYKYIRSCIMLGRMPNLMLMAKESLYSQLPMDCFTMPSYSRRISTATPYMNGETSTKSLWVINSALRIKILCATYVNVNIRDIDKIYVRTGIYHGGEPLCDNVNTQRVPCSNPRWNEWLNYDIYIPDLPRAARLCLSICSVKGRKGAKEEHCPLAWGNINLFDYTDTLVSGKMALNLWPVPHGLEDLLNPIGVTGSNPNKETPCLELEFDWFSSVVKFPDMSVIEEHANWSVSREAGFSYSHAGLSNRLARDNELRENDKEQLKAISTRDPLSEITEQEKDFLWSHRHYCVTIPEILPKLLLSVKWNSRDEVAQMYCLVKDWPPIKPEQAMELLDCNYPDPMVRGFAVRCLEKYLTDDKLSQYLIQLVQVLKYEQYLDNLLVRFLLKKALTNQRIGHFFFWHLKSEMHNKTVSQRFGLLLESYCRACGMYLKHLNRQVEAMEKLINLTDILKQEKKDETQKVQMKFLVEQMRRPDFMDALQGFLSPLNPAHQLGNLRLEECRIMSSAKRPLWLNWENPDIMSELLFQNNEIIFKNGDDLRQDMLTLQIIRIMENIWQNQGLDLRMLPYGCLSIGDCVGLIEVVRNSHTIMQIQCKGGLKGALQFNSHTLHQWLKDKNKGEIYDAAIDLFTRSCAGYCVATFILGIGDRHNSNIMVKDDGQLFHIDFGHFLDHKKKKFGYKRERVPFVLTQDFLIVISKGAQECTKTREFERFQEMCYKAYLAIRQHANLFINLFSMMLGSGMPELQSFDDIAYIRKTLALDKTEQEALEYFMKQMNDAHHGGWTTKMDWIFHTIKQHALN
T1 sequence (P27986 whole entry partner): as the sequence (P27986 whole entry partner) above

Row | IC50 (KPL4 (PIK3CA mut)) | Selectivity (PI3Kδ IC50/PI3KαIC50) (PI3Kα) | IC50 (PI3Kα) | IC50 (PI3Kδ) | IC50 (MCF7 (PIK3CA mut); Homo sapiens) | IC50 (SW48 (PIK3CA mut); Homo sapiens) | IC50 (ZR-75-1 (PTEN loss); Homo sapiens) | IC50 (MCF7 (PIK3CA mut)) | IC50 (SW48 (PIK3CA mut)) | IC50 (ZR-75-1 (PTEN loss)) | SMILES
1 | 20 to 200 nM | II (“II” represents 5-10 times) | < 20 nM | 200 to 1000 nM | < 20 nM | 20 to 200 nM | 200 to 1000 nM | – | – | – | CCn1c(NC(=O)c2ccc(N)nc2)nc2c(OC)c(OCC(=O)NCCN3CCOCC3)ccc2c1=O [8b-48, 6-amino-N-(3-ethyl-8-methoxy-7-(2-((2-morpholinoethyl)amino)-2-oxoethoxy)-4-oxo-3,4-dihydroquinazolin-2-yl)nicotinamide]
2 | 20 to 200 nM | I (“I” represents <5 times) | < 20 nM | < 20 nM | < 20 nM | 20 to 200 nM | 20 to 200 nM | – | – | – | CCn1c(NC(=O)c2cnc(N)nc2)cc2c(OC)c(OCCCN3CCOCC3)ccc2c1=O [8b′-1]
3 | 20 to 200 nM | III (“III” represents >10 times) | < 20 nM | 20 to 200 nM | < 20 nM | 20 to 200 nM | 20 to 200 nM | – | – | – | CCn1c(NC(=O)c2cnc(N)nc2)cc2c(OC)c(OCC(N)=O)ccc2c1=O [8b′-2]
4 | 200 to 1000 nM | I (“I” represents <5 times) | < 20 nM | < 20 nM | 20 to 200 nM | 200 to 1000 nM | 200 to 1000 nM | – | – | – | Cn1c(NC(=O)c2cnc(N)nc2)nc2c3c(ccc2c1=O)OCCCCO3 [14a-4]
5 | 200 to 1000 nM | II (“II” represents 5-10 times) | < 20 nM | 20 to 200 nM | 20 to 200 nM | 200 to 1000 nM | 200 to 1000 nM | – | – | – | Cn1c(NC(=O)c2cnc(N)nc2)nc2c3c(ccc2c1=O)OCCCCCO3 [14a-5]
6 | 200 to 1000 nM | II (“II” represents 5-10 times) | < 20 nM | 20 to 200 nM | 20 to 200 nM | 200 to 1000 nM | 200 to 1000 nM | – | – | – | Cn1c(NC(=O)c2cnc(N)nc2)nc2c3c(ccc2c1=O)OCCCCCCO3 [14a-6]
7 | 200 to 1000 nM | II (“II” represents 5-10 times) | < 20 nM | 20 to 200 nM | 20 to 200 nM | 200 to 1000 nM | 200 to 1000 nM | – | – | – | Cn1c(NC(=O)c2cnc(N)nc2)nc2c3c(ccc2c1=O)OCCCCCCCO3 [14a-7]
8 | 20 to 200 nM | I (“I” represents <5 times) | < 20 nM | < 20 nM | < 20 nM | 20 to 200 nM | 20 to 200 nM | – | – | – | Cn1c(NC(=O)c2cnc(N)nc2)nc2c3c(ccc2c1=O)OCCCCCCCCO3 [14a-8]
9 | 20 to 200 nM | I (“I” represents <5 times) | 20 to 200 nM | 20 to 200 nM | < 20 nM | 200 to 1000 nM | 200 to 1000 nM | – | – | – | CCn1c(NC(=O)c2cnc(N)nc2)nc2c3c(ccc2c1=O)OCCCCO3 [14b-4]
10 | 20 to 200 nM | I (“I” represents <5 times) | < 20 nM | < 20 nM | < 20 nM | 200 to 1000 nM | 200 to 1000 nM | – | – | – | CCn1c(NC(=O)c2cnc(N)nc2)nc2c3c(ccc2c1=O)OCCCCCCCCO3 [14b-8]

Second part, the molecule before the results:

Row | SMILES | IC50 (KPL4 (PIK3CA mut)) | Selectivity (PI3Kδ IC50/PI3KαIC50) (PI3Kα) | IC50 (PI3Kα) | IC50 (PI3Kδ) | IC50 (MCF7 (PIK3CA mut); Homo sapiens) | IC50 (SW48 (PIK3CA mut); Homo sapiens) | IC50 (ZR-75-1 (PTEN loss); Homo sapiens) | IC50 (MCF7 (PIK3CA mut)) | IC50 (SW48 (PIK3CA mut)) | IC50 (ZR-75-1 (PTEN loss))
11 | COc1c(OCCNS(C)(=O)=O)ccc2c(=O)n(C)c(NC(=O)c3cnc(N)nc3)nc12 [8a-30, 2-amino-N-(8-methoxy-3-methyl-7-(2-(methylsulfonamido)ethoxy)-4-oxo-3,4-dihydroquinazolin-2-yl) pyrimidine-5-carboxamide] | 20 to 200 nM | II (“II” represents 5-10 times) | < 20 nM | 20 to 200 nM | < 20 nM | 20 to 200 nM | 200 to 1000 nM | – | – | –
12 | COc1c(OC[C@@H](O)CN2CCOCC2)ccc2c(=O)n(C)c(NC(=O)c3ccc(N)nc3)nc12 [8a-38, (S)-6-amino-N-(7-(2-hydroxy-3-morpholinopropoxy)-8-methoxy-3-methyl-4-oxo-3,4-dihydroouinazolin-2-yl) nicotinamide] | 20 to 200 nM | II (“II” represents 5-10 times) | < 20 nM | 20 to 200 nM | < 20 nM | 20 to 200 nM | 200 to 1000 nM | – | – | –
13 | COc1c(OC[C@H](O)CN2CCOCC2)ccc2c(=O)n(C)c(NC(=O)c3ccc(N)nc3)nc12 [8a-39, (R)-6-amino-N-(7-(2-hydroxy-3-morpholinopropoxy)-8-methoxy-3-methyl-4-oxo-3,4-dihydroquinazolin-2-yl) nicotinamide] | 20 to 200 nM | II (“II” represents 5-10 times) | < 20 nM | 20 to 200 nM | < 20 nM | 20 to 200 nM | 200 to 1000 nM | – | – | –
14 | COc1c(OCCNS(C)(=O)=O)ccc2c(=O)n(C)c(NC(=O)c3ccc(N)nc3)nc12 [8a-40, 6-amino-N-(8-methoxy-3-methyl-7-(2-(methylsulfonamido)ethoxy)-4-oxo-3,4-dihydroquinazoline-2-yl) nicotinamide] | 20 to 200 nM | II (“II” represents 5-10 times) | < 20 nM | 20 to 200 nM | < 20 nM | 20 to 200 nM | 200 to 1000 nM | – | – | –
15 | CCn1c(NC(=O)c2cnc(N)nc2)nc2c(OC)c(OCC(N)=O)ccc2c1=O [8b-2] | 20 to 200 nM | III (“III” represents >10 times) | < 20 nM | 20 to 200 nM | < 20 nM | 20 to 200 nM | 20 to 200 nM | – | – | –
16 | CCn1c(NC(=O)c2cnc(N)nc2)nc2c(OC)c(OCCS(N)(=O)=O)ccc2c1=O [8b-11] | < 20 nM | II (“II” represents 5-10 times) | < 20 nM | < 20 nM | < 20 nM | 20 to 200 nM | 20 to 200 nM | – | – | –
17 | CCn1c(NC(=O)c2cnc(N)nc2)nc2c(OC)c(OC[C@@H](O)CN3CCOCC3)ccc2c1=O [8b-27, (S)-2-amino-N-(3-ethyl-7-(2-hydroxy-3-morpholinopropoxy)-8-methoxy-4-oxo-3,4-dihydroquinazolin-2-yl) pyrimidine-5-carboxamide] | 20 to 200 nM | II (“II” represents 5-10 times) | < 20 nM | 200 to 1000 nM | < 20 nM | 20 to 200 nM | 200 to 1000 nM | – | – | –
18 | CCn1c(NC(=O)c2cnc(N)nc2)nc2c(OC)c(OC[C@H](O)CN3CCOCC3)ccc2c1=O [8b-28, (R)-2-amino-N-(3-ethyl-7-(2-hydroxy-3-morpholinopropoxy)-8-methoxy-4-oxo-3,4-dihydroquinazolin-2-yl) pyrimidine-5-carboxamide] | 20 to 200 nM | II (“II” represents 5-10 times) | < 20 nM | 200 to 1000 nM | < 20 nM | 20 to 200 nM | 200 to 1000 nM | – | – | –
19 | CCn1c(NC(=O)c2cnc(N)nc2)nc2c(OC)c(OCCNS(C)(=O)=O)ccc2c1=O [8b-29, 2-amino-N-(3-ethyl-8-methoxy-7-(2-(methylsulfonamido)ethoxy)-4-oxo-3,4-dihydroquinazolin-2-yl) pyrimidine-5-carboxamide] | 20 to 200 nM | III (“III” represents >10 times) | < 20 nM | 200 to 1000 nM | < 20 nM | 20 to 200 nM | 200 to 1000 nM | – | – | –
20 | CCn1c(NC(=O)c2cnc(N)nc2)nc2c(OC)c(OCC(C)NS(C)(=O)=O)ccc2c1=O (stereo not shown) [8b-30, 2-amino-N-(3-ethyl-8-methoxy-7-(2-(methylsulfonamido)propoxy)-4-oxo-3,4-dihydroquinazolin-2-yl) pyrimidine-5-carboxamide] | 20 to 200 nM | II (“II” represents 5-10 times) | < 20 nM | 200 to 1000 nM | – | – | – | < 20 nM | 20 to 200 nM | 200 to 1000 nM
21 | CCn1c(NC(=O)c2ccc(N)nc2)nc2c(OC)c(OC[C@@H](O)CN3CCOCC3)ccc2c1=O [8b-46, (S)-6-amino-N-(3-ethyl-7-(2-hydroxy-3-morpholinopropoxy)-8-methoxy-4-oxo-3,4-dihydroquinazolin-2-yl) nicotinamide] | 20 to 200 nM | II (“II” represents 5-10 times) | < 20 nM | 200 to 1000 nM | < 20 nM | 20 to 200 nM | 200 to 1000 nM | – | – | –
22 | CCn1c(NC(=O)c2ccc(N)nc2)nc2c(OC)c(OC[C@H](O)CN3CCOCC3)ccc2c1=O [8b-47, (R)-6-amino-N-(3-ethyl-7-(2-hydroxy-3-morpholinopropoxy)-8-methoxy-4-oxo-3,4-dihydroquinazolin-2-yl) nicotinamide] | 20 to 200 nM | II (“II” represents 5-10 times) | < 20 nM | 200 to 1000 nM | < 20 nM | 20 to 200 nM | 200 to 1000 nM | – | – | –
